Assay results reported in patent US20180344702A1, “METHODS FOR TREATING PATIENTS WITH HEMATOLOGIC MALIGNANCIES” (Aptose Biosciences, Inc., priority 2017, published 2018).

Legend:
[1] = test system: Ba/F3 cells transfected with FLT3 D835Y; experiment: Cytotoxicity in isogenic transfected Ba/F3 cells (Table 4); type: cell-based, Murin; conditions: Mus musculus, BaF3, read-out: IC50 in Transfected Ba/F3 cells, FLT3 D835Y
HEL92.1.7 = experiment: Cytotoxicity, MTS cell viability; type: cell-based; conditions: Homo sapiens, HEL 92.1.7, AML, 72 hour MTS
Method: (§1) Cytotoxicity procedure: Cells were seeded in 96-well plate and treated with vehicle DMSO or Compound 7 at a specified concentration and incubated for 72 hours.

Molm-13 = experiment: Cytotoxicity, MTS cell viability; type: cell-based; conditions: Homo sapiens, AML, 72 hour MTS
Method: as §1

SKM-1 = experiment: Cytotoxicity, MTS cell viability; type: cell-based; conditions: Homo sapiens, AML, 72 hour MTS
Method: as §1

NOM0-1 = experiment: Cytotoxicity, MTS cell viability; type: cell-based; conditions: AML, 72 hour MTS
Method: as §1

THP-1 = experiment: Cytotoxicity, MTS cell viability; type: cell-based; conditions: Homo sapiens, AML, 72 hour MTS
Method: as §1

Jurkat = experiment: Cytotoxicity, MTS cell viability; type: cell-based; conditions: Homo sapiens, ALL, 72 hour MTS
Method: as §1

HL60 = experiment: Cytotoxicity, MTS cell viability; type: cell-based; conditions: Homo sapiens, HL-60, AML, 72 hour MTS
Method: as §1

MV4-11 = experiment: Cytotoxicity, MTS cell viability; type: cell-based; conditions: Homo sapiens, AML, 72 hour MTS
Method: as §1

EOL-1 = experiment: Cytotoxicity, MTS cell viability; type: cell-based; conditions: Homo sapiens, EOL1, AML, 72 hour MTS
Method: as §1

KG-1 = experiment: Cytotoxicity, MTS cell viability; type: cell-based; conditions: Homo sapiens, AML, 72 hour MTS
Method: as §1

MUTZ-8 = experiment: Cytotoxicity, MTS cell viability; type: cell-based; conditions: AML, 72 hour MTS
Method: as §1

BTK (E41K) = target: T1, BTK (E41K) (Homo sapiens, UniProt Q06187, E41K); experiment: Inhibition of BTK, kinase IC50; type: biochemical
T1 construct: RBC (only as the name of the general kinase protocol)
Method: (§2) RBC HotSpot Kinase Assay Protocol:
(§3) Reagents used: Base Reaction buffer; 20 mM Hepes (pH 7.5), 10 mM MgCl2, 1 mM EGTA, 0.02% Brij35, 0.02 mg/ml BSA, 0.1 mM Na3VO4, 2 mM DTT, 1% DMSO. Required cofactors are added individually to each kinase reaction.
(§4) Compound 7 was dissolved in 100% DMSO to a specified concentration. The serial dilution was conducted by epMotion 5070 in DMSO. The substrate was freshly prepared in Reaction Buffer and any required cofactors to the substrate solution were added. The kinase was added to the solution and gently mixed. Compound 7 was added in 100% DMSO into the kinase reaction mixture by Acoustic technology (Echo550; nanoliter range), and incubated for 20 min at room temperature. ^33P-ATP (Specific activity 10 μCi/μl) was added into the reaction mixture to initiate the reaction, which was incubated for 2 hours, whereupon kinase activity was detected by the filter-binding method.

BTK (P190K) = target: T2, BTK (P190K) (Homo sapiens, UniProt Q06187, P190K); experiment: Inhibition of BTK, kinase IC50; type: biochemical
T2 construct: RBC (only as the name of the general kinase protocol)
Method: as §2, §3, §4

BTK = target: T3, BTK (Homo sapiens, UniProt Q06187); experiment: Inhibition of BTK, kinase IC50; type: biochemical
T3 construct: RBC (only as the name of the general kinase protocol)
Method: as §2, §3, §4

MEC-1 = experiment: Cytotoxicity, MTS cell viability; type: cell-based; conditions: CLL, 3 days MTS
Method: (§5) Cells were seeded in a 96 well plate and treated with either vehicle (DMSO) or compound 7 at 10 different concentrations for 3 days at 37° C. and 5% CO2. Cell viability was assessed using CellTiter 96 AQueous one solution (MTS Promega Cat#G3581), and IC50 values calculated using GraphPad Prism 7 software.
as §1

Daudi = experiment: Cytotoxicity, MTS cell viability; type: cell-based; conditions: Homo sapiens, 72 h, Burkitt's, 3 days MTS
Method: as §5, §1

Mino = experiment: Cytotoxicity, MTS cell viability; type: cell-based; conditions: Homo sapiens, 72 h, MCL, 3 days MTS
Method: as §5, §1

RS411 = experiment: Cytotoxicity, MTS cell viability; type: cell-based; conditions: Homo sapiens, RS4-11, 72 h, ALL / B-ALL, 3 days MTS
Method: as §5, §1

K562 = experiment: Cytotoxicity, MTS cell viability; type: cell-based; conditions: Homo sapiens, 72 h, CML, 3 days MTS
Method: as §5, §1

Ramos = experiment: Cytotoxicity, MTS cell viability; type: cell-based; conditions: Homo sapiens, 72 h, Burkitt's, 3 days MTS
Method: as §5, §1

Raji = experiment: Cytotoxicity, MTS cell viability; type: cell-based; conditions: Burkitt's, 3 days MTS
Method: as §5, §1

GRANTA-519 = experiment: Cytotoxicity, MTS cell viability; type: cell-based; conditions: Homo sapiens, 72 h, MCL, 3 days MTS
Method: as §5, §1

SU-DHL6 = experiment: Cytotoxicity, MTS cell viability; type: cell-based; conditions: Homo sapiens, SU-DHL-6, 72 h, DLBCL / GCB-DLBCL, 3 days MTS
Method: as §5, §1

Jeko-1 = experiment: Cytotoxicity, MTS cell viability; type: cell-based; conditions: Homo sapiens, 72 h, MCL, 3 days MTS
Method: as §5, §1

RL = experiment: Cytotoxicity, MTS cell viability; type: cell-based; conditions: Homo sapiens, 72 h, DLBCL / GCB-DLBCL, 3 days MTS
Method: as §5, §1

ITK = ITK (Homo sapiens, UniProt Q08881); experiment: Key off-targets (Table 8); type: biochemical
L1236 = experiment: Cytotoxicity, MTS cell viability; type: cell-based; conditions: L-1236, 72 h, HL, 3 days MTS
Method: as §5

[2] = test system: Mino, RAMOS, GRANTA-519 and SU-DHL-6 cells; experiment: Cell cycle progression in B-cell malignant cell lines (EdU/PI, FACS); type: cell-based; conditions: FIGS. 27, 28
Method: The data presented in FIGS. 27A-27D and FIGS. 28A-28D were generated using well-known protocols for measuring cell cycle progression (e.g., EdU and/or PI staining followed by FACS analysis using the BD Accuri C6 flow), and is readily apparent to a skilled artisan.
Cell-cycle analysis: Cells were treated with vehicle, DMSO or Compound 7 and were stained with PI and EdU, and then analyzed by flow cytometry to determine the phases of cell cycle.

[3] = test system: Ba/F3 cells transfected with FLT3 WT; experiment: Cytotoxicity in isogenic transfected Ba/F3 cells (Table 4); type: cell-based, Murin; conditions: Mus musculus, BaF3, read-out: IC50 in Transfected Ba/F3 cells, FLT3 WT

T3 sequence (Q06187 whole entry): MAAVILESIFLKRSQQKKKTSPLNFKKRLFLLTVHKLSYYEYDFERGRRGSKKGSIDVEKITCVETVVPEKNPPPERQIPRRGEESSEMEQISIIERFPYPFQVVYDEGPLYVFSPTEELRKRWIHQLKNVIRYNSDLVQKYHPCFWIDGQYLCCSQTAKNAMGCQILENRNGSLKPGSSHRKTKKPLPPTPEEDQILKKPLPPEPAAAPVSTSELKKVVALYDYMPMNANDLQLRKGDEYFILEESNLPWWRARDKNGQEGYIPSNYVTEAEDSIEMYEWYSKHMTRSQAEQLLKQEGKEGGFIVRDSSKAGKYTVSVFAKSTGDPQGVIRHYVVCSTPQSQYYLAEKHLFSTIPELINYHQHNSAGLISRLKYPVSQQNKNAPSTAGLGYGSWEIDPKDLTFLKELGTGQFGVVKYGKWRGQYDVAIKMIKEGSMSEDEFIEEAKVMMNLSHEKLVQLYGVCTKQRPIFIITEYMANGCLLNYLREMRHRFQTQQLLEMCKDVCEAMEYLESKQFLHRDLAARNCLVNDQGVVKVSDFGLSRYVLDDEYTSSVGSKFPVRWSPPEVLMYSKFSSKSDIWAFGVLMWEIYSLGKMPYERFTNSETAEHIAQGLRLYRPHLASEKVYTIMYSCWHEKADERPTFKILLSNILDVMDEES
T1 sequence (Q06187 whole entry E41K): as the sequence (Q06187 whole entry) above, with E41K counted along it
Sequence of ITK (Q08881 whole entry): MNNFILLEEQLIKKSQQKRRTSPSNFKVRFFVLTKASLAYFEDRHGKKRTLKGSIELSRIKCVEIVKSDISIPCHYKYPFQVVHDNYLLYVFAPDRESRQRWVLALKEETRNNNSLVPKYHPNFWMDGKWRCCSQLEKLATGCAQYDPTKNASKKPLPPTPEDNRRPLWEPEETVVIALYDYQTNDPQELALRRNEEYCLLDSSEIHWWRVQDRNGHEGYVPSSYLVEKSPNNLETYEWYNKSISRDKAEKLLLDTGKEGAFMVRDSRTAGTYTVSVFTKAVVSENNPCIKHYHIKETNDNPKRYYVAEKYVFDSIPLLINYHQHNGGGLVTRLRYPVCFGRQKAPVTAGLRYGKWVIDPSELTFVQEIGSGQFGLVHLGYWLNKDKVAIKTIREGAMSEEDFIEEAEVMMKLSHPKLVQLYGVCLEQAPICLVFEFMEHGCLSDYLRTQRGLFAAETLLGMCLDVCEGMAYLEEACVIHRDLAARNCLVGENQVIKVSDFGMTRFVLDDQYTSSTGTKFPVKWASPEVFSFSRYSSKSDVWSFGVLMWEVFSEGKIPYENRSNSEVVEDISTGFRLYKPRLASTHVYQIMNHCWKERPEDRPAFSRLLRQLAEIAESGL
T2 sequence (Q06187 whole entry P190K): as the sequence (Q06187 whole entry) above, with P190K counted along it

Work on Cc1cnc(-c2ccc(-c3ccc(NC(=O)Nc4c(F)cc(F)cc4F)cc3F)c3c2C(=O)NC3)[nH]1 [Compound 7, 1-{3-fluoro-4-[7-(5-methyl-1H-imidazol-2-yl)-1-oxo-2,3-dihydro-1H-isoindol-4-yl]-phenyl}-3-(2,4,6-trifluorophenyl)urea] yielded an IC50 [1] of 8.8 nM, an IC50 (HEL92.1.7) of 4690 nM and an IC50 (Molm-13) of 0.395 nM. It also gave an IC50 (SKM-1) of 816 nM, an IC50 (NOM0-1) of 20.5 nM and an IC50 (THP-1) of 2970 nM. The IC50 (Jurkat) was 1590 nM, the IC50 (HL60) was 280 nM and the IC50 (MV4-11) was 0.238 nM. It also gave an IC50 (EOL-1) of 0.045 nM, an IC50 (KG-1) of 28.7 nM and an IC50 (MUTZ-8) of 794 nM. For the same molecule, the IC50 (BTK (E41K)) was 14.5 nM, the IC50 (BTK (P190K)) was 6.59 nM and the IC50 (BTK) was 8.42 nM. For the same molecule, the IC50 (MEC-1) was 3800 nM, the IC50 (MEC-1; Homo sapiens, MEC1, 72 h) was 3800 nM and the IC50 (Daudi) was 166 nM. It also gave an IC50 (Mino) of 5.98 nM, an IC50 (RS411) of 1.51 nM and an IC50 (K562) of 12900 nM. The IC50 (Ramos) was 18.4 nM, the IC50 (Raji) was 2030 nM and the IC50 (Raji; Homo sapiens, 72 h) was 2030 nM. The IC50 (GRANTA-519) was 13.6 nM, the IC50 (SU-DHL6) was 122 nM and the IC50 (Jeko-1) was 73.8 nM. The IC50 (RL) was 426 nM, the IC50 (ITK) was 4.3 nM and the IC50 (L1236) was 7820 nM. For the same molecule, the Cell cycle progression [2] was “interferes with cell cycle progression” and the IC50 [3] was 11.3 nM.
